# Source: patent US20240148821A1, “PHARMACEUTICAL USE OF CYCLIC PEPTIDE COMPOUND” (CHUGAI SEIYAKU KABUSHIKI KAISHA, priority 2021, published 2024)
# Numbered stars: 1 amine (or outer) side, 2 acyl side, 3 side chain; on linkers, the order of the positions; unused ones are H or OH. Bridge positions count the residues as written; N and C are the ends. Square brackets hold non-standard residues; d marks the D form. Peptide text beside a SMILES is read from it. * marks the point of attachment. hPhe(3-Cl-4-CF3) = N[C@@H](CCc1ccc(C(F)(F)F)c(Cl)c1)C(=O)O; X52 = CN([C@@H](Cc1ccccc1OC(F)(F)F)C(=O)[*:2])[*:1]; NMePhe(2-CF3) = CN[C@@H](Cc1ccccc1C(F)(F)F)C(=O)O; NMePhe(3-Cl) = CN[C@@H](Cc1cccc(Cl)c1)C(=O)O; NMePhe(4-Me) = CN[C@@H](Cc1ccc(C)cc1)C(=O)O; NMePhe(4-F) = CN[C@@H](Cc1ccc(F)cc1)C(=O)O; NMePhe(2-Me) = CN[C@@H](Cc1ccccc1C)C(=O)O; NMeNva(5,5-F2) = CN[C@@H](CCC(F)F)C(=O)O; NMeGly(cPent) = CN[C@H](C(=O)O)C1CCCC1; NMehPhe = CN[C@@H](CCc1ccccc1)C(=O)O; NMeCha = CN[C@@H](CC1CCCCC1)C(=O)O; NMeGly(cPr) = CN[C@H](C(=O)O)C1CC1; NMehLeu = CN[C@@H](CCC(C)C)C(=O)O; NMeChg = CN[C@H](C(=O)O)C1CCCCC1; NMeF = CN[C@@H](Cc1ccccc1)C(=O)O; NMeI = CC[C@H](C)[C@H](NC)C(=O)O; NMeD = CN[C@@H](CC(=O)O)C(=O)O; NMeL = CN[C@@H](CC(C)C)C(=O)O; Ahp(2) = CCCCC[C@H](N)C(=O)O; hLeu = CC(C)CC[C@H](N)C(=O)O; NMeV = CN[C@H](C(=O)O)C(C)C; d(β3hA) = C[C@@H](N)CC(=O)O; NMeS = CN[C@@H](CO)C(=O)O; Ac6c = NC1(C(=O)O)CCCCC1; NMeA = CN[C@@H](C)C(=O)O; Piperidide = C1CCN(*)CC1; Pyrrolidide = C1CCN(*)C1; Ac5c = NC1(C(=O)O)CCCC1; Aze = O=C(O)[C@@H]1CCN1; Sar = CNCC(=O)O
# Tested on: Human pancreatic cancer cell line AsPC-1 (G12D mutation Kras)
# Assay: AsPC-1 cell growth inhibition (AsPC-1 CGI)
# Type: cell-based
# Settings: read-out: AsPC-1 cell growth inhibition, 50% growth inhibitory concentration (IC50 value); 96 hours, CellTiter-Glo, values classified in ranges
# Description: Test compounds were serially dilated with dimethyl sulfoxide, and 200 nL was then dispensed to a U-bottom 96-well plate using Labcyte Echo. […] The cell suspension was dispensed to a. plate containing a test compound at 100 μL per well and incubated at 37° C. in a 5% carbon dioxide gas incubator. 96 hours later, 80 μL of CellTiter-Glo (Promega) was added to each well and fluorescence was measured.
row,Structure (SMILES),IC50
1,CC[C@H](C)[C@@H]1NC(=O)[C@H](C)N(C)C(=O)C[C@@H](C(=O)N2CCCCC2)N(C)C(=O)[C@H](C(C)C)N(C)C(=O)C2(CCCC2)NC(=O)[C@@H]2CCCN2C(=O)[C@H](CCc2ccc(C(F)(F)F)c(Cl)c2)NC(=O)CN(C)C(=O)[C@H](CC2CCCCC2)N(C)C(=O)[C@@H]2CCN2C(=O)[C@H](CCC(C)C)N(C)C1=O [Compound 1595] ([NMeA]I[NMehLeu][Aze][NMeCha][Sar][hPhe(3-Cl-4-CF3)]P[Ac5c][NMeV][NMeD]-Piperidide; lactam N-11),> 500 nM
2,CC[C@H](C)[C@@H]1NC(=O)[C@H](CC(C)C)N(C)C(=O)C[C@@H](C)NC(=O)[C@H](C(C)C)N(C)C(=O)C2(CCCC2)NC(=O)[C@@H]2CCCN2C(=O)[C@H](CCc2ccc(C(F)(F)F)c(Cl)c2)NC(=O)CN(C)C(=O)[C@H](Cc2ccccc2)N(C)C(=O)CN(C)C(=O)CN(C)C1=O [Compound 1606] (cyclo([Ac5c][NMeV][d(β3hA)][NMeL]I[Sar][Sar][NMeF][Sar][hPhe(3-Cl-4-CF3)]P)),> 500 nM
3,CC[C@H](C)[C@@H]1NC(=O)[C@H](CC(C)C)N(C)C(=O)C[C@@H](C)NC(=O)[C@H](C(C)C)N(C)C(=O)C2(CCCC2)NC(=O)[C@@H]2CCCN2C(=O)[C@H](CCc2ccc(C(F)(F)F)c(Cl)c2)NC(=O)CN(C)C(=O)[C@H](Cc2ccccc2C(F)(F)F)N(C)C(=O)CN(C)C(=O)CN(C)C1=O [Compound 1613] (cyclo([Ac5c][NMeV][d(β3hA)][NMeL]I[Sar][Sar][NMePhe(2-CF3)][Sar][hPhe(3-Cl-4-CF3)]P)),> 500 nM
4,CC[C@H](C)[C@@H]1NC(=O)[C@H](CC(C)C)N(C)C(=O)C[C@@H](C)NC(=O)[C@H](C(C)C)N(C)C(=O)C2(CCCC2)NC(=O)[C@@H]2CCCN2C(=O)[C@H](CCc2ccc(C(F)(F)F)c(Cl)c2)NC(=O)CN(C)C(=O)[C@H](Cc2ccccc2C)N(C)C(=O)CN(C)C(=O)CN(C)C1=O [Compound 1614] (cyclo([Ac5c][NMeV][d(β3hA)][NMeL]I[Sar][Sar][NMePhe(2-Me)][Sar][hPhe(3-Cl-4-CF3)]P)),> 500 nM
5,CC[C@H](C)[C@@H]1NC(=O)[C@H](CC(C)C)N(C)C(=O)C[C@@H](C)NC(=O)[C@H](C(C)C)N(C)C(=O)C2(CCCC2)NC(=O)[C@@H]2CCCN2C(=O)[C@H](CCc2ccc(C(F)(F)F)c(Cl)c2)NC(=O)CN(C)C(=O)[C@H](Cc2cccc(Cl)c2)N(C)C(=O)CN(C)C(=O)CN(C)C1=O [Compound 1623] (cyclo([Ac5c][NMeV][d(β3hA)][NMeL]I[Sar][Sar][NMePhe(3-Cl)][Sar][hPhe(3-Cl-4-CF3)]P)),> 500 nM
6,CC[C@H](C)[C@@H]1NC(=O)[C@H](CC(C)C)N(C)C(=O)C[C@@H](C)NC(=O)[C@H](C(C)C)N(C)C(=O)C2(CCCC2)NC(=O)[C@@H]2CCCN2C(=O)[C@H](CCc2ccc(C(F)(F)F)c(Cl)c2)NC(=O)CN(C)C(=O)[C@H](CCc2ccccc2)N(C)C(=O)CN(C)C(=O)CN(C)C1=O [Compound 1627] (cyclo([Ac5c][NMeV][d(β3hA)][NMeL]I[Sar][Sar][NMehPhe][Sar][hPhe(3-Cl-4-CF3)]P)),> 500 nM
7,CC[C@H](C)[C@@H]1NC(=O)[C@H](CC(C)C)N(C)C(=O)C[C@@H](C)NC(=O)[C@H](C(C)C)N(C)C(=O)C2(CCCC2)NC(=O)[C@@H]2CCCN2C(=O)[C@H](CCc2ccc(C(F)(F)F)c(Cl)c2)NC(=O)CN(C)C(=O)[C@H](Cc2ccccc2OC(F)(F)F)N(C)C(=O)CN(C)C(=O)CN(C)C1=O [Compound 1635] (cyclo([Ac5c][NMeV][d(β3hA)][NMeL]I[Sar][Sar][X52][Sar][hPhe(3-Cl-4-CF3)]P)),> 500 nM
8,CC[C@H](C)[C@@H]1NC(=O)[C@H](CC(C)C)N(C)C(=O)C[C@@H](C(=O)N2CCCCC2)N(C)C(=O)[C@H](C2CCCCC2)N(C)C(=O)C2(CCCCC2)NC(=O)[C@@H]2CCCN2C(=O)[C@H](CCc2ccc(C(F)(F)F)c(Cl)c2)NC(=O)CN(C)C(=O)[C@H](CC2CCCCC2)N(C)C(=O)CN(C)C(=O)CN(C)C1=O [Compound 1644] ([NMeL]I[Sar][Sar][NMeCha][Sar][hPhe(3-Cl-4-CF3)]P[Ac6c][NMeChg][NMeD]-Piperidide; lactam N-11),> 500 nM
9,"CC[C@H](C)[C@@H]1NC(=O)[C@H](CC(C)C)N(C)C(=O)C[C@@H](C(=O)N2CCCCC2)N(C)C(=O)[C@H](C2CCCCC2)N(C)C(=O)C2(CCCC2)NC(=O)[C@@H]2CCCN2C(=O)[C@H](CCc2ccc(C(F)(F)F)c(Cl)c2)NC(=O)CN(C)C(=O)[C@H](CCC(F)F)N(C)C(=O)CN(C)C(=O)CN(C)C1=O [Compound 1647] ([NMeL]I[Sar][Sar][NMeNva(5,5-F2)][Sar][hPhe(3-Cl-4-CF3)]P[Ac5c][NMeChg][NMeD]-Piperidide; lactam N-11)",> 500 nM
10,CC[C@H](C)[C@@H]1NC(=O)[C@H](CC(C)C)N(C)C(=O)C[C@@H](C(=O)N2CCCCC2)N(C)C(=O)[C@H]([C@@H](C)CC)N(C)C(=O)C2(CCCC2)NC(=O)[C@@H]2CCCN2C(=O)[C@H](CCc2ccc(C(F)(F)F)c(Cl)c2)NC(=O)CN(C)C(=O)[C@H](Cc2ccc(C)cc2)N(C)C(=O)CN(C)C(=O)CN(C)C1=O [Compound 1649] ([NMeL]I[Sar][Sar][NMePhe(4-Me)][Sar][hPhe(3-Cl-4-CF3)]P[Ac5c][NMeI][NMeD]-Piperidide; lactam N-11),≤ 20 nM
11,CC(C)CC[C@@H]1NC(=O)[C@H](CC(C)C)N(C)C(=O)C[C@@H](C(=O)N2CCCCC2)N(C)C(=O)[C@H](C2CCCCC2)N(C)C(=O)C2(CCCC2)NC(=O)[C@@H]2CCCN2C(=O)[C@H](CCc2ccc(C(F)(F)F)c(Cl)c2)NC(=O)CN(C)C(=O)[C@H](CC2CCCCC2)N(C)C(=O)CN(C)C(=O)CN(C)C1=O [Compound 1651] ([NMeL][hLeu][Sar][Sar][NMeCha][Sar][hPhe(3-Cl-4-CF3)]P[Ac5c][NMeChg][NMeD]-Piperidide; lactam N-11),> 500 nM
12,CC[C@H](C)[C@@H]1NC(=O)[C@H](CC(C)C)N(C)C(=O)C[C@@H](C(=O)N(C)C)N(C)C(=O)[C@H](C2CCCC2)N(C)C(=O)C2(CCCC2)NC(=O)[C@@H]2CCCN2C(=O)[C@H](CCc2ccc(C(F)(F)F)c(Cl)c2)NC(=O)CN(C)C(=O)[C@H](CC2CCCCC2)N(C)C(=O)CN(C)C(=O)CN(C)C1=O [Compound 1659] ([NMeL]I[Sar][Sar][NMeCha][Sar][hPhe(3-Cl-4-CF3)]P[Ac5c][NMeGly(cPent)][NMeD]-NMe2; lactam N-11),≤ 20 nM
13,CC[C@H](C)[C@@H]1NC(=O)[C@H](CC(C)C)N(C)C(=O)C[C@@H](C(=O)N2CCCC2)N(C)C(=O)[C@H]([C@@H](C)CC)N(C)C(=O)C2(CCCC2)NC(=O)[C@@H]2CCCN2C(=O)[C@H](CCc2ccc(C(F)(F)F)c(Cl)c2)NC(=O)CN(C)C(=O)[C@H](CC2CCCCC2)N(C)C(=O)CN(C)C(=O)CN(C)C1=O [Compound 1662] ([NMeL]I[Sar][Sar][NMeCha][Sar][hPhe(3-Cl-4-CF3)]P[Ac5c][NMeI][NMeD]-Pyrrolidide; lactam N-11),≤ 20 nM
14,CC[C@H](C)[C@@H]1NC(=O)[C@H](CC(C)C)N(C)C(=O)C[C@@H](C(=O)N2CCCCC2)N(C)C(=O)[C@H](C2CCCCC2)N(C)C(=O)C2(CCCC2)NC(=O)[C@@H]2CCCN2C(=O)[C@H](CCc2ccc(C(F)(F)F)c(Cl)c2)NC(=O)CN(C)C(=O)[C@H](C2CC2)N(C)C(=O)CN(C)C(=O)CN(C)C1=O [Compound 1666] ([NMeL]I[Sar][Sar][NMeGly(cPr)][Sar][hPhe(3-Cl-4-CF3)]P[Ac5c][NMeChg][NMeD]-Piperidide; lactam N-11),> 500 nM
15,CC[C@H](C)[C@@H]1NC(=O)[C@H](C)N(C)C(=O)C[C@@H](C)NC(=O)[C@H](C(C)C)N(C)C(=O)C2(CCCC2)NC(=O)[C@@H]2CCCN2C(=O)[C@H](CCc2ccc(C(F)(F)F)c(Cl)c2)NC(=O)[C@H]2CCCN2C(=O)[C@H](Cc2ccc(F)cc2)N(C)C(=O)[C@@H]2CCCN2C(=O)CN(C)C1=O [Compound 1667] (cyclo([Ac5c][NMeV][d(β3hA)][NMeA]I[Sar]P[NMePhe(4-F)][dP][hPhe(3-Cl-4-CF3)]P)),> 500 nM
16,CC[C@H](C)[C@@H]1NC(=O)[C@H](CC(C)C)N(C)C(=O)C[C@@H](C(=O)N2CCCCC2)N(C)C(=O)[C@H](C2CCCCC2)N(C)C(=O)C2(CCCC2)NC(=O)[C@@H]2CCCN2C(=O)[C@H](CCc2ccc(C(F)(F)F)c(Cl)c2)NC(=O)CN(C)C(=O)[C@H](C)N(C)C(=O)CN(C)C(=O)CN(C)C1=O [Compound 1681] ([NMeL]I[Sar][Sar][NMeA][Sar][hPhe(3-Cl-4-CF3)]P[Ac5c][NMeChg][NMeD]-Piperidide; lactam N-11),> 500 nM
17,CC[C@H](C)[C@@H]1NC(=O)[C@H](CC(C)C)N(C)C(=O)C[C@@H](C(=O)N2CCCCC2)N(C)C(=O)[C@H](C2CCCCC2)N(C)C(=O)C2(CCCC2)NC(=O)[C@@H]2CCCN2C(=O)[C@H](CCc2ccc(C(F)(F)F)c(Cl)c2)NC(=O)CN(C)C(=O)[C@H](CO)N(C)C(=O)CN(C)C(=O)CN(C)C1=O [Compound 1687] ([NMeL]I[Sar][Sar][NMeS][Sar][hPhe(3-Cl-4-CF3)]P[Ac5c][NMeChg][NMeD]-Piperidide; lactam N-11),> 500 nM
18,CC[C@H](C)[C@@H]1NC(=O)[C@H](C)N(C)C(=O)C[C@@H](C)NC(=O)[C@H](C2CCCCC2)N(C)C(=O)C2(CCCC2)NC(=O)[C@@H]2CCCN2C(=O)[C@H](CCc2ccc(C(F)(F)F)c(Cl)c2)NC(=O)CN(C)C(=O)[C@H](CC2CCCCC2)N(C)C(=O)CN(C)C(=O)CN(C)C1=O [Compound 1688] (cyclo([Ac5c][NMeChg][d(β3hA)][NMeA]I[Sar][Sar][NMeCha][Sar][hPhe(3-Cl-4-CF3)]P)),> 500 nM
19,CCCCC[C@@H]1NC(=O)[C@H](CC(C)C)N(C)C(=O)C[C@@H](C(=O)N2CCCCC2)N(C)C(=O)[C@H](C2CCCCC2)N(C)C(=O)C2(CCCC2)NC(=O)[C@@H]2CCCN2C(=O)[C@H](CCc2ccc(C(F)(F)F)c(Cl)c2)NC(=O)CN(C)C(=O)[C@H](CC2CCCCC2)N(C)C(=O)CN(C)C(=O)CN(C)C1=O [Compound 1692] ([NMeL][Ahp(2)][Sar][Sar][NMeCha][Sar][hPhe(3-Cl-4-CF3)]P[Ac5c][NMeChg][NMeD]-Piperidide; lactam N-11),> 500 nM
